Measurements as given in patent publication US10870889B2, “Immunoglobulin expression levels as biomarker for proteasome inhibitor response” (Onyx Therapeutics, Inc., priority 2013, dated 2020).
Values joined by “and” are separate entries in the source; they are usually repeats but may differ in a detail not shown here. Equal entries are not always repeated.

Columns and labels:
[1] = test system: multiple myeloma patients; assay: Bortezomib data analysis: combined Ig expression score (Affymetrix microarray, CD138+ tumor cells, GSE9782) versus response and time-to-progression on single-agent bortezomib or dexamethasone; format: in vivo, human; conditions: bortezomib-treated patients
Excerpt: Publicly available RNA microarray data in tab-delimited text format were downloaded from the Gene Expression Omnibus (GEO ID: GSE9782).
A list of 55 probes from this Affymetrix microarray platform that map to genes encoding immunoglobulin (Ig)-related proteins was obtained from Rody et al. Addition File 5. This example tested for an association between normalized intensity of each of these 55 probes and bortezomib response, which was labeled as “PGx_Responder=R” in the dataset. […] The finding of 13 significant associations is far more than expected by chance (Binomial P-value=2×10^−6). […] It is not surprising that many probes are not associated, given that some map to rarer, patient-specific portions of the Ig loci and that others map to regions that are unusually highly-expressed, and therefore not well-measured with microarray technology (i.e., their fluorescence is likely to be saturated).
Patients were classified as achieving complete response (CR), partial response (PR), minimal response (MR), no change (NC), or progressive disease (PD), using European Group for Bone Marrow Transplantation criteria. In brief, PD requires 25% increase in paraprotein, whereas MR, PR, and CR require at least 25%, 50%, and 100% decreases, respectively.
Various mean IG expression cutoffs were considered to maximize the clinical utility of a potential diagnostic test. Ultimately, a cutoff of 0.29 (defining “IG-High”>=0.29 and “IG-Low”<0.29) was chosen, predicting response in the training data with 71% sensitivity and 62% specificity. This same cutoff was then applied to time-to-progression (TTP) data for these patients, finding that IG-High patients in this cohort have a 1.4-fold longer median TTP than IG-Low patients (8.4 months vs. 6.0 months; log-rank P-value=0.025).

[2] = test system: multiple myeloma patients; assay: Carfilzomib data analysis: IGH/IGK/IGL and FCGR2B expression (RNA-Seq, FPKQ, CD138+ tumor cells) versus response, cutoffs with % sensitivity/% specificity (ROC) and time-to-progression on single-agent carfilzomib; format: in vivo, human
Experimental: (§1) Bone marrow samples were aspirated from patients enrolled on Onyx-sponsored Phase 2 trials (NCT00511238, NCT00530816, and NCT00721734) prior to treatment with single-agent carfilzomib. Myeloma tumor cells were isolated by EasySep® immunomagnetic bead-based CD138+ selection (StemCell Technologies), re-suspended in TRIzol (Life Technologies) and frozen at […]. RNA was extracted from these samples with the PureLink RNA kit from Life Technologies (Cat #12183018A), following the recommended protocol for cells in TRIzol suspension, including the optional on-column DNase treatment. Elution volumes ranged from 75 μl-30 μl depending on the total number of cells going into isolation. ERCC control sequences from Life Technologies (ERCC ExFold RNA Spike-In Mix; Cat #4456739) were spiked in to all total RNA samples of sufficient quantity (Nanodrop yield>=150 ng) and quality (Bioanalyzer RIN>=7.0). For 500 ng input libraries, 1 μl of a 1:100 dilution of Mix 1 was added to each total RNA sample and for 150 ng input libraries, 3 μl of a 1:1000 dilution of Mix 1 was added to each total RNA sample. The resulting material was used to construct RNA-Seq libraries with Illumina's TruSeq RNA sample prep kit v2 (Cat #RS-122-2001), with PolyA selection included as the first step. Libraries were sequenced on Illumina's HiSeq 2000 with a target of 70 million fragments using 100×100 bp paired-end sequencing to generate 140 million reads per sample and the resulting raw data was QC-ed with metrics implemented in OmicSoft Array Studio v6.1.
(§2) Raw sequence reads were aligned and expression of genes & isoforms were quantified with a customized pipeline also built in Array Studio v6.1 [Jun]. This pipeline accepts Illumina adapter-stripped, paired-end reads that are trimmed at the […] if a base reaches PHRED quality score Q2 or lower. All reads are aligned to the transcriptome, which consists of the RefGene annotation of human hg19 supplemented with the more rich Ig loci annotations available from ENSEMBL. Reads aligned with mismatches and unaligned reads are subsequently aligned to the entire human genome, searching for novel exon junctions. Reads that remain unaligned are then aligned to the newly identified exon junctions. Alignments to the different references are compared and the highest scoring alignment is retained, or in the event of a tie, the transcriptome alignment is preferentially kept. Finally, all transcriptome alignment locations are translated to genomic coordinates to estimate the expected number of mappings per gene/isoform using the EM algorithm [Dempster]. The EM algorithm assigns reads with multiple alignment locations to an isoform by calculating the conditional probability of a read aligning to a specific isoform, given all other alignments. Weighting the total number of aligned reads with this probability yields posterior expected read counts for each transcript. The EM counts are normalized by the length of the genes/isoforms and number of reads in a library to yield FPKM values (Fragments Per Kilobase per Million reads). Between-sample normalization is achieved by 75th quantile normalization, where each sample is scaled by the median of 75th quantiles from all samples to yield quantile-normalized FPKM or “FPKQ” values.
The FPKQ values corresponding to each “gene” of the three Ig loci, IGH (immunoglobulin heavy locus), IGK (immunoglobulin kappa locus) and IGL (immunoglobulin lambda locus), were summed to produce locus-level expression estimates.
Patients with a best overall response of minimal response (MR) or better (i.e., MR, partial response [PR], very good partial response [VGPR] and complete response [CR]) were grouped into a responder category (N=27; abbreviated as “R”) and patients with a best overall response of stable disease (SD) or worse (i.e., SD and progressive disease [PD]) were grouped into a non-responder category (N=33; abbreviated as “NR”). […]

IG expression = IG expression in tumor sample of one patient at screening and on Cycle 1 Day 2 of single-agent carfilzomib (RNA-Seq); format: in vivo, human
Experimental: as §1, §2
To understand, how IG expression changes during treatment with proteasome inhibitors, the data was examined from one patient for which both a screening tumor sample and a sample collected on Cycle 1 Day 2 (C1D2) of treatment with single-agent carfilzomib were available.

[3] = test system: Line A (high Ig) hybridoma cells; assay: Hybridoma sensitivity to carfilzomib, CellTiter-Glo Luminescent Cell Viability Assay, Line A; format: cell-based; conditions: 72h treatment, viability vs no treatment control, read-out: inhibitory concentration (IC50) on the cells of Line A
Experimental: (§3) The two hybridoma cell lines were tested for sensitivity to carfilzomib. Cells of each of Line A (high Ig) and Line B (low Ig) were treated with various doses (40 nM, 30 nM, 20 nM, 15 nM, l0 nM, 7.5 nM, 5 nM, 3.75 nM and 2.5 nM) of carfilzomib for 72h. The viability of the cells were then measured by CellTiter-Glo® Luminescent Cell Viability Assay (Cat. No. G7570; Promega Corporation) and compared to no treatment control.

[4] = test system: Line B (low Ig) hybridoma cells; assay: Hybridoma sensitivity to carfilzomib, CellTiter-Glo Luminescent Cell Viability Assay, Line B; format: cell-based; conditions: 72h treatment, viability vs no treatment control
Experimental: as §3

[5] = test system: high and low Ig-expressing hybridoma cell lines; assay: Drug sensitivity assay on two additional pairs of high and low Ig-expressing hybridoma cell lines; format: cell-based
[6] = FCGR2B cutoffs 75 and 5 combined with IGH-High cutoff 140,000
[7] = Screening vs C1D2, one patient, single-agent carfilzomib
[8] = one patient, tumor sample on Cycle 1 Day 2 of single-agent carfilzomib

With `CC(C)C[C@H](NC(=O)[C@H](Cc1ccccc1)NC(=O)c1cnccn1)B(O)O` [bortezomib] the “fold longer median TTP, IG-High vs IG-Low patients” value ([1]; cutoff 0.29, log-rank P-value=0.025) was 1.4 fold, the “median TTP (time-to-progression), IG-Low patients” value ([1]; mean IG expression score <0.29) was 6.0 months and the “median TTP (time-to-progression), IG-High patients” value ([1]; mean IG expression score >=0.29) was 8.4 months.
With `CC(C)C[C@H](NC(=O)[C@H](CCc1ccccc1)NC(=O)CN1CCOCC1)C(=O)N[C@@H](Cc1ccccc1)C(=O)N[C@@H](CC(C)C)C(=O)[C@@]1(C)CO1` [carfilzomib] the “median TTP, IGH+FCGR2B-Negative patients” value [2, 6] was 1.2 months, the “median TTP, IGH+FCGR2B-Positive patients” value [2, 6] was 8.9 months and the “median TTP (time to progression), IGH-Low patients” value ([2]; IGH FPKQ <160,000) was 1.4 months and 1.3 months. For the same molecule, the “median TTP (time to progression), IGH-High patients” value ([2]; IGH FPKQ >=160,000) was 7.6 months and 7.3 months, the “fold longer median TTP, IGH-High vs IGH-Low patients” value ([2]; log-rank P-value=0.003) was 6 fold and 5.4 fold and the “fold longer median TTP, IGH+FCGR2B-Positive vs IGH+FCGR2B-Negative patients” value ([2]; log-rank P-value=3×10−5) was 7.3 fold. For the same molecule, the “Fold-Change of expression, gene ICKV3-20” value (IG expression; [7]) was 4.11, the “Fold-Change of expression, gene IGHA1” value (IG expression; [7]) was 3.37 and the “Fold-Change of expression, gene IGHV3-30” value (IG expression; [7]) was 3.63. The “Fold-Change of expression, gene IGHV3-33” value (IG expression; [7]) was 3.77, the “Fold-Change of expression, gene IGKC” value (IG expression; [7]) was 3.88 and the “IG expression lower in the sample collected one day after the first dose” value (IG expression; one patient, screening vs C1D2) was 3- to 4 fold. The “Expression C1D2, gene ICKV3-20” value (IG expression; [8]) was 9.6E+04, the “Expression C1D2, gene IGHA1” value (IG expression; [8]) was 1.3E+05 and the “Expression C1D2, gene IGHV3-30” value (IG expression; [8]) was 2.4E+04. For the same molecule, the “Expression C1D2, gene IGHV3-33” value (IG expression; [8]) was 2.1E+04, the “Expression C1D2, gene IGKC” value (IG expression; [8]) was 1.4E+05 and the IC50 [3] was 10.4 nM. The IC50 [4] was 24.3 nM and the “sensitivity of high Ig-expressing hybridoma lines relative to low Ig-expressing lines” value [5] was “greater sensitivity”.
